Columns and labels:
[1] = test system: Mucilaginibacter HPPD (SEQ ID NO: 28); assay: In vitro HPPD activity assay, tolerance index; assay type: biochemical, Mucilaginibacter paludis; details: normalized on Arabidopsis wild-type HPPD
Method: (§1) The activity assay for HPPD is based on the analysis of homogentisic acid by reversed phase HPLC.
(§2) The assay mixture can contain 150 mM potassium phosphate buffer pH 7.0, 50 mM L-ascorbic acid, 100 μM Catalase (Sigma-Aldrich), 1 μM FeSO4 and 0.2 units of purified HPPD enzyme in a total volume of 505 μl. 1 unit is defined as the amount of enzyme that is required to produce 1 nmol of HGA per minute at 20° C.
(§3) The reaction is allowed to proceed for 45 min at room temperature. The reaction is stopped by the addition of 50 μl of 4.5 M phosphoric acid. The sample is filtered using a […] pore size PVDF filtration device.
(§4) 5 μl of the cleared sample is analyzed on an UPLC HSS T3 column (particle size 1.8 μm, dimensions 2.1×50 mm; Waters) by isocratic elution using 90% 20 mM NaH2PO4 pH 2.2, 10% methanol (v/v).
(§5) HGA is detected electrochemically at 750 mV (mode: DC; polarity: positive) and quantified by integrating peak areas (Empower software; Waters).
(§6) Inhibitors are dissolved in DMSO (dimethylsulfoxide) to a concentration of 0.5 mM. From this stock solution serial five-fold dilutions are prepared in DMSO, which are used in the assay. The respective inhibitor solution accounts for 1% of the assay volume. Thus, final inhibitor concentrations range from 5 μM to 320 pM, respectively. Activities are normalized by setting the uninhibited enzyme activity to 100%. IC50 values are calculated using non-linear regression.
(§7) Using methods which are described in the above examples or well known in the art, purified, recombinant wildtype HPPD enzymes are characterized with respect to their kinetic properties and sensitivity towards HPPD inhibiting herbicides. Apparent michaelis constants (Km) and maximal reaction velocities (Vmax) are calculated by non-linear regression with the software GraphPad Prism 5 (GraphPad Software, La Jolla, USA) using a substrate inhibition model. […] Weighted means (by standard error) of Km and IC50 values are calculated from at least three independent experiments. The Cheng-Prusoff equation for competitive inhibition (Cheng, Y. C.; Prusoff, W. H. Biochem Pharmacol 1973, 22, 3099-3108) is used to calculate dissociation constants (Ki).
(§8) Field performance of the HPPD enzyme, which is used as a herbicide tolerance trait may depend not only on its lack of sensitivity towards HPPD inhibiting herbicides but also on its activity. To assess the potential performance of a herbicide tolerance trait a tolerance index (TI) is calculated using the following formula: […]
(§9) Easy comparison and ranking of each trait is enabled by normalizing tolerance indexes on Arabidopsis wild-type HPPD.

[2] = test system: transgenic Arabidopsis plants expressing Algoriphagus HPPD; assay: Greenhouse herbicide spray test, transgenic plants (T2); assay type: in vivo, Arabidopsis thaliana; details: two weeks after treatment
Excerpt: (§10) Additionally, T1 and T2 transgenic Arabidopsis plants can be tested for improved tolerance to HPPD-inhibiting herbicides in greenhouse studies. Herbicide injury scoring is done 2-3 weeks after treatment and is rated on a scale of 0 to 100%, 0% being no injury and 100% being complete death.
(§11) Transgenic Arabidopsis plants were sprayed with a range of doses from 1.56-50 g/ha with HPPD-inhibiting herbicides and injury evaluations were taken two weeks after treatment. […] As depicted in Table 6, control plants are severely injured by all doses of herbicide applied, with at least 70% of leaf material being damaged at the lowest application rate. For example, transgenic plants expressing Scenedesmus HPPD have an excellent tolerance to all herbidcides tested. […] After application of Inhibitor 2, only 18% of leaf material was damaged resulting in a 5-fold tolerance compared to the WT at the highest application rate.

[3] = test system: transgenic Arabidopsis plants expressing Scenedesmus HPPD; assay: as above; assay type: in vivo, Arabidopsis thaliana; details: for Injury evaluation, scale 0-100% / tolerance of transgenic plants (in words): two weeks after treatment; for tolerance of transgenic plants (in words): doses 1.56-50 g/ha
Excerpt: as §10, §11

[4] = test system: transgenic Arabidopsis plants expressing Acidobacterium HPPD; assay: as above; assay type: in vivo, Arabidopsis thaliana; details: for Injury evaluation, scale 0-100% / tolerance of transgenic plants (in words): two weeks after treatment; for tolerance of transgenic plants (in words): doses 1.56-50 g/ha
Excerpt: as §10, §11

[5] = test system: Pontibacter HPPD (SEQ ID NO: 16); assay: In vitro HPPD activity assay, tolerance index; assay type: biochemical, Pontibacter sp.; details: normalized on Arabidopsis wild-type HPPD
Method: as §1, §2, §3, §4, §5, §6, §7, §8, §9

[6] = test system: untransformed wild-type (WT) Arabidopsis plants; assay: Greenhouse herbicide spray test, wild-type plants; assay type: in vivo, Arabidopsis thaliana; details: two weeks after treatment, mean of three plants
Excerpt: as §10, §11

[7] = Algoriphagus HPPD Event 1, 3.125 g/ha
[8] = Algoriphagus HPPD Event 1, 6.25 g/ha
[9] = Algoriphagus HPPD Event 2, 3.125 g/ha
[10] = Algoriphagus HPPD Event 2, 6.25 g/ha
[11] = Scenedesmus HPPD Event 1, 3.125 g/ha
[12] = Scenedesmus HPPD Event 1, 6.25 g/ha
[13] = Scenedesmus HPPD Event 2, 3.125 g/ha
[14] = Scenedesmus HPPD Event 2, 6.25 g/ha
[15] = Acidobacterium HPPD Event 1, 3.125 g/ha
[16] = Acidobacterium HPPD Event 1, 6.25 g/ha
[17] = Acidobacterium HPPD Event 2, 3.125 g/ha
[18] = Acidobacterium HPPD Event 2, 6.25 g/ha
[19] = Algoriphagus HPPD Event 1, 12.5 g/ha
[20] = Algoriphagus HPPD Event 2, 12.5 g/ha
[21] = Scenedesmus HPPD Event 1, 12.5 g/ha
[22] = Scenedesmus HPPD Event 2, 12.5 g/ha
[23] = Acidobacterium HPPD Event 1, 12.5 g/ha
[24] = Acidobacterium HPPD Event 2, 12.5 g/ha

Row | SMILES | TI (normalized tolerance index) [1] | Injury evaluation, scale 0-100% [2, 7] [%] | Injury evaluation, scale 0-100% [2, 8] [%] | Injury evaluation, scale 0-100% [2, 9] [%] | Injury evaluation, scale 0-100% [2, 10] [%] | Injury evaluation, scale 0-100% [3, 11] [%] | Injury evaluation, scale 0-100% [3, 12] [%] | Injury evaluation, scale 0-100% [3, 13] [%] | Injury evaluation, scale 0-100% [3, 14] [%] | tolerance of transgenic plants (in words) [3] | Injury evaluation, scale 0-100% [4, 15] [%] | Injury evaluation, scale 0-100% [4, 16] [%] | Injury evaluation, scale 0-100% [4, 17] [%] | Injury evaluation, scale 0-100% [4, 18] [%] | tolerance of transgenic plants (in words) [4] | TI (normalized tolerance index) [5] | Injury evaluation, scale 0-100% ([6]; 3.125 g/ha) [%] | Injury evaluation, scale 0-100% [2, 19] [%] | Injury evaluation, scale 0-100% [2, 20] [%] | Injury evaluation, scale 0-100% [3, 21] [%] | other results
1 | CS(=O)(=O)c1ccc(C(=O)C2C(=O)CCCC2=O)c([N+](=O)[O-])c1 [Inhibitor 2, 2-(4-methylsulfonyl-2-nitro-benzoyl)cyclohexane-1,3-dione] | 0.6 | 53 | 65 | 60 | 75 | 13 | 18 | 38 | 38 | outstanding tolerance | 8 | 45 | 33 | 55 | significantly increased tolerance | 0.1 | 93 |  |  |  | Injury evaluation, scale 0-100% ([2]; Algoriphagus HPPD Event 1, 1.56 g/ha): 48%; Injury evaluation, scale 0-100% ([2]; Algoriphagus HPPD Event 2, 1.56 g/ha): 45%; Injury evaluation, scale 0-100% ([3]; Scenedesmus HPPD Event 1, 1.56 g/ha): 10%; Injury evaluation, scale 0-100% ([3]; Scenedesmus HPPD Event 2, 1.56 g/ha): 23%; tolerance compared to the WT ([3]; at the highest application rate): 5 fold; Injury evaluation, scale 0-100% ([4]; Acidobacterium HPPD Event 1, 1.56 g/ha): 8%; Injury evaluation, scale 0-100% ([4]; Acidobacterium HPPD Event 2, 1.56 g/ha): 10%; leaf damage ([4]; at the lowest application rate, both events): 8-10%; Injury evaluation, scale 0-100% ([6]; 1.56 g/ha): 83%; Injury evaluation, scale 0-100% ([6]; 6.25 g/ha): 93%
2 | CN(c1c(Cl)ccc(C2=C(O)c3ncccc3C(C)(C)S2(=O)=O)c1Cl)S(C)(=O)=O [Inhibitor 4, N-[2,6-dichloro-3-(8-hydroxy-5,5-dimethyl-6,6-dioxo-thiopyrano[4,3-b]pyridin-7-yl)phenyl]-N-methyl-methanesulfonamide] | 13.5 |  |  |  |  |  |  |  |  | outstanding tolerance |  |  |  |  | not severly injured | 16.4 |  | 40 | 33 | 13 | Injury evaluation, scale 0-100% ([2]; Algoriphagus HPPD Event 1, 25 g/ha): 45%; Injury evaluation, scale 0-100% ([2]; Algoriphagus HPPD Event 1, 50 g/ha): 50%; Injury evaluation, scale 0-100% ([2]; Algoriphagus HPPD Event 2, 25 g/ha): 33%; Injury evaluation, scale 0-100% ([2]; Algoriphagus HPPD Event 2, 50 g/ha): 60%; Injury evaluation, scale 0-100% ([3]; Scenedesmus HPPD Event 1, 25 g/ha): 18%; Injury evaluation, scale 0-100% ([3]; Scenedesmus HPPD Event 1, 50 g/ha): 65%; Injury evaluation, scale 0-100% [3, 22]: 20%; Injury evaluation, scale 0-100% ([3]; Scenedesmus HPPD Event 2, 25 g/ha): 25%; Injury evaluation, scale 0-100% ([3]; Scenedesmus HPPD Event 2, 50 g/ha): 25%; Injury evaluation, scale 0-100% [4, 23]: 20%; Injury evaluation, scale 0-100% ([4]; Acidobacterium HPPD Event 1, 25 g/ha): 25%; Injury evaluation, scale 0-100% ([4]; Acidobacterium HPPD Event 1, 50 g/ha): 35%; Injury evaluation, scale 0-100% [4, 24]: 23%; Injury evaluation, scale 0-100% ([4]; Acidobacterium HPPD Event 2, 25 g/ha): 25%; Injury evaluation, scale 0-100% ([4]; Acidobacterium HPPD Event 2, 50 g/ha): 60%; leaf material harmed ([4]; after application of 12.5 g/ha, both events): 20-23%; Injury evaluation, scale 0-100% ([6]; 12.5 g/ha): 75%; Injury evaluation, scale 0-100% ([6]; 25 g/ha): 83%; Injury evaluation, scale 0-100% ([6]; 50 g/ha): 85%
3 | CSc1c(Cl)cc(F)c(C(=O)Nc2nnnn2C)c1Cl [Inhibitor 11, 2,4-dichloro-6-fluoro-3-methylsulfanyl-N-(1-methyltetrazol-5-yl)benzamide] | 0.2 | 55 | 73 | 68 | 90 | 13 | 15 | 13 | 13 | outstanding tolerance | 53 | 65 | 58 | 93 |  | 0 | 70 | 98 | 97 | 33 | Injury evaluation, scale 0-100% [3, 22]: 15%; Injury evaluation, scale 0-100% [4, 23]: 98%; Injury evaluation, scale 0-100% [4, 24]: 98%; Injury evaluation, scale 0-100% ([6]; 12.5 g/ha): 83%

Reference: US10619138B2, “Herbicide-resistant hydroxyphenylpyruvate dioxygenases” (BASF SE, priority 2013, dated 2020)
